Among the data in US8461328B2, “Tricyclic heterocyclic compounds, compositions and methods of use thereof” (Genentech, Inc., priority 2010, dated 2013) are Ki values, retold here.

Where a name gives a salt, the structure may show the parent alone. Read-outs that look alike come from different tables or passages of the source.

The Ki is a measure of affinity in units of concentration, obtained from inhibition or displacement.

Format in all cases: biochemical
One experiment addresses T1, TYK2 (Homo sapiens, UniProt P29597).
T1 construct: made in house; host or cells: SF9 insect cells (baculovirus)
T1 sequence (P29597 873-1187): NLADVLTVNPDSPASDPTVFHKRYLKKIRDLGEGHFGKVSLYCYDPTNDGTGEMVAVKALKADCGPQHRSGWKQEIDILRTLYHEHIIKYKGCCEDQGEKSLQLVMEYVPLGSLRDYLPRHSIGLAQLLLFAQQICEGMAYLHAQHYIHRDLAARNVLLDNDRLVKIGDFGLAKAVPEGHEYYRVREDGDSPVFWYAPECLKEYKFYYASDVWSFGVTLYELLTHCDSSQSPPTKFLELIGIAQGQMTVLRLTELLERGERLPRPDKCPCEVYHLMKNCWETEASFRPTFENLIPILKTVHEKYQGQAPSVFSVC
Briefly: TYK2 inhibition (Table 4).

Another experiment has as its target T2, JAK3 (Homo sapiens, UniProt P52333).
T2 construct: made in house; host or cells: SF9 insect cells (baculovirus)
Briefly: JAK3 inhibition (Table 4).

The target of the next experiment is T3, JAK1 (Homo sapiens, UniProt P23458).
T3 construct: made in house; host or cells: SF9 insect cells (baculovirus)
T3 sequence (P23458 852-1154): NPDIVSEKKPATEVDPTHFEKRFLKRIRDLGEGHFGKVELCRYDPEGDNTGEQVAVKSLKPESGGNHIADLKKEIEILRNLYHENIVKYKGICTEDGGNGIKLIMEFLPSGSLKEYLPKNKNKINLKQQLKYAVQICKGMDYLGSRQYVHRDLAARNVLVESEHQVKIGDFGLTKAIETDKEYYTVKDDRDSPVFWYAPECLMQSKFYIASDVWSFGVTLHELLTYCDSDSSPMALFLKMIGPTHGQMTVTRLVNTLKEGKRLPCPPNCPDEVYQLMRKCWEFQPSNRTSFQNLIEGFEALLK
The experiment is described as follows: JAK1 inhibition (Table 4).

In another experiment the target is T4, JAK2 (Homo sapiens, UniProt O60674).
T4 construct: made in house; host or cells: SF9 insect cells (baculovirus)
T4 sequence (O60674 812-1132): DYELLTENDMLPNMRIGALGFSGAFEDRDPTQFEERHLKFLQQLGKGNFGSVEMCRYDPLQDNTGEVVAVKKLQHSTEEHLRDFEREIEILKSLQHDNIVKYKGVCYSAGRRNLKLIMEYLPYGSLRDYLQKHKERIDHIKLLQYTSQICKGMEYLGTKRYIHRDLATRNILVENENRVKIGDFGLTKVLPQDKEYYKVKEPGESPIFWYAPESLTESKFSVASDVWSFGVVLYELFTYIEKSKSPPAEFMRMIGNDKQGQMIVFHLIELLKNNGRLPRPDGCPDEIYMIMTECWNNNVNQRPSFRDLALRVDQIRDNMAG
The experiment is described as follows: JAK2 inhibition (Table 4). Conditions: read-out: JAK2 Ki.

T2 sequence (P52333 783-1124): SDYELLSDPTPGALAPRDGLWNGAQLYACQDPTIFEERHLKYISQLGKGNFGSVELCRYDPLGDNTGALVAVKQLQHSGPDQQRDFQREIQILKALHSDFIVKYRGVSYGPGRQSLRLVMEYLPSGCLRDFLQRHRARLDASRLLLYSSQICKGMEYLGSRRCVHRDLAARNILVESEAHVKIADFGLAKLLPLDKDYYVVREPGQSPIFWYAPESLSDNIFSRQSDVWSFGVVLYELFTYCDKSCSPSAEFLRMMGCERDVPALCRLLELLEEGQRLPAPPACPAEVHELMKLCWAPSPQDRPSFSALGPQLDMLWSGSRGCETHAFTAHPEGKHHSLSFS

As to “3-[6-benzenesulfonyl-2-((R)-1-hydroxy-ethyl]-6H-1,3,5,6-tetraaza-as-indecen-1-yl}-cyclohexanecarbonitrile [Example 742]”, the Ki on TYK2 worked out at 11.1 nM; at JAK3 (read-out: JAK3 Ki), 36.6 nM; on JAK1 (read-out: JAK1 Ki), 9.51 nM; at JAK2 it was 66.2 nM.

As to `Cc1nc2cnc3[nH]ccc3c2n1C1CCCCC1C` (mixture of isomers) [Example 516, 2-Methyl-1-(2-methyl-cyclohexyl)-1,6-dihydro-1,3,5,6-tetraaza-as-indacene], the Ki at TYK2 amounted to 7.58 nM; at JAK3 (read-out: JAK3 Ki), 5.35 nM; at JAK1 (read-out: JAK1 Ki), 2.17 nM; on JAK2, 2.78 nM.

As to `N#CCC1CCC(n2c(CO)nc3cnc4[nH]ccc4c32)CC1` (mixture of isomers) [Example 643, [4-(2-Hydroxymethyl-6H-1,2,3,5,6-tetraaza-as-indacen-1-yl)-cyclohexyl]-acetonitrile], the Ki at TYK2 came out at 0.51 nM; on JAK3 (JAK3 Ki), 5.26 nM; on JAK1 (JAK1 Ki), 0.27 nM; at JAK2, 0.96 nM.

On to `C[C@@H](O)c1nc2cnc3[nH]ccc3c2n1C1CCC(CS(C)(=O)=O)CC1` (mixture of isomers) [Example 649, (R)-1-[1-(4-Methanesulfonylmethyl-cyclohexyl)-1,6-dihydro-1,2,3,5,6-tetraaza-as-indacen-2-yl]-ethanol], for which the inhibition constant (Ki) at TYK2 came to 38.4 nM; on JAK3 (read-out: JAK3 Ki), 68.6 nM; at JAK1 (read-out: JAK1 Ki) it was 4.82 nM; at JAK2, 38.6 nM.

Consider `O=C1CC2CCC(n3cnc4cnc5[nH]ccc5c43)CC2N1` (racemic) [Example 111, 6-(6H-1,2,3,5,6-Tetraaza-as-indacen-1-yl)-octahydro-indol-2-one], for which the Ki on TYK2 was found to be 21 nM; on JAK3 (read-out: JAK3 Ki) it was 26.5 nM; at JAK1 (read-out: JAK1 Ki) it was 4.87 nM; at JAK2 it was 10.4 nM.

Regarding `CCC(C)Cc1nc2cnc3[nH]ccc3c2n1C1CCN(CCC#N)CC1` (racemic) [Example 122, 3-{4-[2-(2-Methyl-butyl)-6H-1,2,3,5,6-tetraaza-as-indacen-1-yl]-piperidin-1-yl}-propionitrile], the inhibition constant Ki at TYK2 turned out to be 1050 nM; on JAK3 (read-out: JAK3 Ki), 83.4 nM; at JAK1 (read-out: JAK1 Ki) it was 62.3 nM; at JAK2 it was 281 nM.

Regarding `COC(=O)CC(c1cccnc1)N1CCC(n2cnc3cnc4[nH]ccc4c32)CC1` (racemic) [Example 126, 3-pyridin-3-yl-3-[4-(6H-1,2,3,5,6-tetraaza-as-indacen-1-yl)-piperidin-1-yl]-propionic acid methyl ester], the Ki at TYK2 came out at 193 nM; on JAK3 (read-out: JAK3 Ki), 418 nM; at JAK1 (read-out: JAK1 Ki), 15.5 nM; on JAK2, 15.2 nM.

With `CC1CC(n2cnc3cnc4[nH]ccc4c32)CCN1Cc1ccccc1` (racemic) [Example 127, 1-(1-Benzyl-2-methyl-piperidin-4-yl)-1,6-dihydro-1,2,3,5,6-tetraaza-as-indacene], the inhibition constant Ki stood at 26.1 nM on TYK2, 8.46 nM at JAK3 (read-out: JAK3 Ki), 2.6 nM on JAK1 (read-out: JAK1 Ki) and 1.82 nM on JAK2.

For the compound `CC1CC(n2cnc3cnc4[nH]ccc4c32)CCN1Cc1ccccc1` (racemic) [Example 128, 1-(1-Benzyl-2-methyl-piperidin-4-yl)-1,6-dihydro-1,2,3,5,6-tetraaza-as-indacene], the Ki was 82.6 nM on TYK2, 60.8 nM at JAK3 (read-out: JAK3 Ki), 2.09 nM at JAK1 (read-out: JAK1 Ki) and 2.11 nM on JAK2.

For the compound `O=C1CC(n2cnc3cnc4[nH]ccc4c32)CCN1Cc1ccccc1` (racemic) [Example 129, 1-Benzyl-4-(6H-1,2,3,5,6-tetraaza-as-indacen-1-yl)-piperidin-2-one], the Ki at TYK2 came out at 312 nM; on JAK3 (read-out: JAK3 Ki) it was 535 nM; at JAK1 (read-out: JAK1 Ki) it was 43.8 nM; on JAK2, 57.2 nM.

On to `O=C1CCC(n2cnc3cnc4[nH]ccc4c32)CN1` (racemic) [Example 130, 5-(6H-1,2,3,5,6-Tetraaza-as-indacen-1-yl)-piperidin-2-one], for which the Ki at TYK2 amounted to 622 nM; at JAK3 (read-out: JAK3 Ki), 2280 nM; on JAK1 (read-out: JAK1 Ki), 126 nM; on JAK2, 389 nM.

For the compound `O=C1CC(n2cnc3cnc4[nH]ccc4c32)CCN1` (racemic) [Example 133, 4-(6H-1,2,3,5,6-Tetraaza-as-indacen-1-yl)-piperidin-2-one], the Ki came out at 798 nM on TYK2, 297 nM on JAK3 (read-out: JAK3 Ki), 54.2 nM on JAK1 (read-out: JAK1 Ki) and 150 nM at JAK2.

With `CC1CN(Cc2ccccc2)CCC1n1cnc2cnc3[nH]ccc3c21` (racemic) [Example 149, Racemic cis 1-(1-Benzyl-3-methyl-piperidin-4-yl)-1,6-dihydro-1,2,3,5,6-tetraaza-as-indacene], the Ki on TYK2 worked out at 18.4 nM; at JAK3 (read-out: JAK3 Ki), 20.3 nM; on JAK1 (read-out: JAK1 Ki), 0.98 nM; at JAK2 it was 1.61 nM.

Consider `CC1CN(Cc2ccccc2)CCC1n1cnc2cnc3[nH]ccc3c21` (racemic) [Example 150, Racemic trans 1-(1-Benzyl-3-methyl-piperidin-4-yl)-1,6-dihydro-1,2,3,5,6-tetraaza-as-indacene dihydrochloride], for which the inhibition constant Ki at TYK2 stood at 292 nM; at JAK3 (read-out: JAK3 Ki), 17.7 nM; at JAK1 (read-out: JAK1 Ki) it was 4.17 nM; on JAK2 it was 11.9 nM.

Turning to `Cc1nc2cnc3[nH]ccc3c2n1C1CCN(Cc2ccccc2)CC1C` (racemic) [Example 151, Racemic 1-(1-benzyl-3-methyl-piperidin-4-yl)-2-methyl-1,6-dihydro-1,2,3,5,6-tetraaza-as-indacene dihydrochloride salt], the Ki came out at 31.2 nM on TYK2, 13.5 nM at JAK3 (read-out: JAK3 Ki), 1.78 nM on JAK1 (read-out: JAK1 Ki) and 2.27 nM at JAK2.

For `CC(O)c1nc2cnc3[nH]ccc3c2n1C1CCN(Cc2cccc(C#N)c2)CC1` (racemic) [Example 156, Racemic 3-{4-[2-(1-Hydroxy-ethyl)-6H-1,2,3,5,6-tetraaza-as-indacen-1-yl]-piperidin-1-ylmethyl}-benzonitrile], the Ki is 209 nM on TYK2, 84.6 nM at JAK3 (read-out: JAK3 Ki), 2.13 nM on JAK1 (read-out: JAK1 Ki) and 16.3 nM at JAK2.

On to `OCC(O)c1nc2cnc3[nH]ccc3c2n1C1CCCCC1` (racemic) [Example 853, 1-(1-Cyclohexyl-1,6-dihydro-1,3,5,6-tetraaza-as-indacen-2-yl)-ethane-1,2-diol], for which the Ki at TYK2 amounted to 5.29 nM; at JAK3 (read-out: JAK3 Ki) it was 20.4 nM; at JAK1 (read-out: JAK1 Ki) it was 1.98 nM.

Turning to `CN(C(=O)Cc1nc2cnc3[nH]ccc3c2n1C1CCNCC1)C1CCCC1` [Example 257, N-Cyclopentyl-N-methyl-2-(1-piperidin-4-yl-1,6-dihydro-1,3,5,6-tetraaza-as-indacen-2-yl)-acetamide], the Ki at TYK2 came to 3430 nM; on JAK3 (read-out: JAK3 Ki), 397 nM; at JAK1 (read-out: JAK1 Ki) it was 200 nM.

For `CN(C)CC(=O)N1CC[C@@H](n2cnc3cnc4[nH]ccc4c32)C1` [Example 429, 2-Dimethylamino-1-[(R)-3-(6H-1,3,5,6-tetraaza-as-indacen-1-yl)-pyrrolidin-1-yl]-ethanone], the values for the Ki on TYK2, on JAK1 (read-out: JAK1 Ki) and at JAK2 were 2230 nM, 211 nM and 894 nM, respectively.

Consider `N#Cc1ccc(S(=O)(=O)N2CC[C@@H](n3cnc4cnc5[nH]ccc5c43)C2)cc1` [Example 433, 4-[(R)-3-(6H-1,3,5,6-Tetraaza-as-indacen-1-yl)-pyrrolidine-1-sulfonyl]-benzonitrile], for which the Ki on TYK2 was 293 nM; on JAK1 (read-out: JAK1 Ki), 22.4 nM; at JAK2 it was 87.6 nM.

`Cc1nc(S(=O)(=O)N2CCC(n3cnc4cnc5[nH]ccc5c43)CC2)cn1C` [Example 444, 1-[1-(1,2-Dimethyl-1H-imidazole-4-sulfonyl)-piperidin-4-yl]-1,6-dihydro-1,3,5,6-tetraaza-as-indacene]: the values for the inhibition constant Ki on TYK2, at JAK1 (read-out: JAK1 Ki) and on JAK2 were 3420 nM, 481 nM and 370 nM, respectively.

Turning to `CC(C)N1CCC(n2nnc3cnc4[nH]ccc4c32)CC1` [Example 548, 1-(1-Isopropyl-piperidin-4-yl)-1,6-dihydro-1,2,3,5,6-pentaaza-as-indacene], the Ki amounted to 2790 nM on TYK2, 223 nM at JAK1 (read-out: JAK1 Ki) and 484 nM on JAK2.

Consider `OC[C@@H](O)c1nc2cnc3[nH]ccc3c2n1C1CCCCC1` [Example 688, (S)-1-(1-Cyclohexyl-1,6-dihydro-1,2,3,5,6-tetraaza-as-indacen-2-yl)-ethane-1,2-diol], for which the Ki at TYK2 came out at 4.7 nM; at JAK3 (read-out: JAK3 Ki), 16.1 nM; at JAK1 (read-out: JAK1 Ki) it was 1.77 nM.

Take `OC[C@H](O)c1nc2cnc3[nH]ccc3c2n1C1CCCCC1` [Example 858, (R)-1-(1-Cyclohexyl-1,6-dihydro-1,3,5,6-tetraaza-as-indacen-2-yl)-ethane-1,2-diol]: the Ki on TYK2 was 19.8 nM; at JAK3 (read-out: JAK3 Ki) it was 52.4 nM; at JAK1 (read-out: JAK1 Ki) it was 7.77 nM.

As to `CCN1CCCC[C@H]1C(=O)N1CCC(n2cnc3cnc4[nH]ccc4c32)CC1` [Example 949, ((S)-1-Ethyl-piperidin-2-yl)-[4-(6H-1,3,5,6-tetraaza-as-indacen-1-yl)-piperidin-1-yl]-methanone], the results for the Ki on TYK2, on JAK1 (read-out: JAK1 Ki) and on JAK2 were 1790 nM, 44.1 nM and 515 nM, respectively.

As for `O=C([C@@H]1CCCCN1C1COC1)N1CCC(n2cnc3cnc4[nH]ccc4c32)CC1` [Example 951, ((S)-1-Oxetan-3-yl-piperidin-2-yl)-[4-(6H-1,3,5,6-tetraaza-as-indacen-1-yl)-piperidin-1-yl]-methanone], the inhibition constant (Ki) at TYK2 stood at 2880 nM; at JAK1 (read-out: JAK1 Ki), 141 nM; on JAK2, 480 nM.
